Holding throughout (assay): cAMP functional assay (HTRF) in HEK293 cells in presence of 0.1% casein
Type in all cases: cell-based

Assay [1] deals with T1, human glucagon receptor (GcgR) (Homo sapiens, UniProt P47871).
T1 construct: expressed in transfected cells; host or cells: HEK293
To be noted: HEK293 cells expressing human GcgR, geometric mean, read-out: hGcgR cAMP Rel EC50 nM (SEM, n).

The target of assay [2] is T2, human glucose-dependent insulinotropic peptide receptor (GIPR) (Homo sapiens, UniProt P48546).
T2 construct: expressed in transfected cells; host or cells: HEK293
T2 sequence (P48546 22-466): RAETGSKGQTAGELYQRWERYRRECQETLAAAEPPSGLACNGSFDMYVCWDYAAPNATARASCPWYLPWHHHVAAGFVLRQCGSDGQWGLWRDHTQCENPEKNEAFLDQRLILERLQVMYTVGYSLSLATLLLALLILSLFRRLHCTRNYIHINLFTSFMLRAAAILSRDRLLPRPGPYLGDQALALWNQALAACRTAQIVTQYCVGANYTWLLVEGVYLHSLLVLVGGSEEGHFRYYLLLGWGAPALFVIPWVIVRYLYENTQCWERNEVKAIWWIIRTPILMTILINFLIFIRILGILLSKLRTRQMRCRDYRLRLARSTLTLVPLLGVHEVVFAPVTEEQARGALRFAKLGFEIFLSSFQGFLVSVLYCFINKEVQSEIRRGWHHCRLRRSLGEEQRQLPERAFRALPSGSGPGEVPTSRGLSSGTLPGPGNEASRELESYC
To be noted: HEK293 cells expressing human GIPR, geometric mean, read-out: hGIPR cAMP Rel EC50 nM (SEM, n).

Assay [3] deals with T3, human GLP-1 receptor (GLP-1R) (Homo sapiens, UniProt P43220).
T3 construct: expressed in transfected cells; host or cells: HEK293
T3 sequence (P43220 24-463): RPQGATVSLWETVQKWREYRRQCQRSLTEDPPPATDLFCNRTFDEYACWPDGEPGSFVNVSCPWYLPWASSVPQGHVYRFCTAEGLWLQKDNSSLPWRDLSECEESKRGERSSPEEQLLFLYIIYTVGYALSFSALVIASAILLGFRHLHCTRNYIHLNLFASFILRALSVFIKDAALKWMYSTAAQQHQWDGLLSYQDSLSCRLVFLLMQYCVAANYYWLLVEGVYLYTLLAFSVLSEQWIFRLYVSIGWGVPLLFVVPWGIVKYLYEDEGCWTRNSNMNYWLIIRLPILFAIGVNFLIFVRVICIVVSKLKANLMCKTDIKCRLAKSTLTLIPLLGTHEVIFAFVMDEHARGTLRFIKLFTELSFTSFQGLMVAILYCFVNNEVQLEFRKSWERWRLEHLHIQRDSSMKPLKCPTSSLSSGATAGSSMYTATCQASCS
To be noted: HEK293 cells expressing human GLP-1R, geometric mean, read-out: hGLP1R cAMP Rel EC50 nM (SEM, n).

*1 amine or outer side, *2 acyl side, *3 side chain or, on linkers, in order; H or OH if unused. Where a SMILES comes first, the peptide text is derived from it. Side-chain parts run from the residue outwards. [ ]: non-standard residue; d: D form. The star is where a group is joined. C20 diacid = O=C(O)CCCCCCCCCCCCCCCCCCC(=O)*; C18 diacid = O=C(O)CCCCCCCCCCCCCCCCC(=O)*; γGlu = O=C(O)[C@H](CCC(=O)[*:2])N[*:1]; αMeF = C[C@](N)(Cc1ccccc1)C(=O)O; 4Pal = N[C@@H](Cc1ccncc1)C(=O)O; AEEA = NCCOCCOCC(=O)O; Aib = CC(C)(N)C(=O)O

T1 sequence (P47871 26-477): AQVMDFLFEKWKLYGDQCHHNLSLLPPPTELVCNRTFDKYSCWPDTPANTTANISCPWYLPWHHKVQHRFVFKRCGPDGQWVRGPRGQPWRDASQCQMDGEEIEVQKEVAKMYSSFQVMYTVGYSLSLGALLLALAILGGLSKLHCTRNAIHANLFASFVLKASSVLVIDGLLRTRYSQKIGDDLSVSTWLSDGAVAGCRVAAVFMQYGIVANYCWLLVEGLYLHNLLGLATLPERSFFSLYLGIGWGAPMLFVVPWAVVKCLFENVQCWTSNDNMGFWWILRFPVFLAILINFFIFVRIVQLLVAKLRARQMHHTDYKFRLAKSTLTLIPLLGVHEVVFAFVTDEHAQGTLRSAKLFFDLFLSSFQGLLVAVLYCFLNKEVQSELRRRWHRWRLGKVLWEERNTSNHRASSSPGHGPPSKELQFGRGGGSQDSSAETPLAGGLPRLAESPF

`CC[C@H](C)[C@H](NC(=O)[C@H](CO)NC(=O)[C@H](Cc1ccc(O)cc1)NC(=O)[C@H](CC(=O)O)NC(=O)[C@H](CO)NC(=O)[C@@H](NC(=O)[C@H](Cc1ccccc1)NC(=O)[C@@H](NC(=O)CNC(=O)[C@H](CCC(=O)O)NC(=O)C(C)(C)NC(=O)[C@@H](N)Cc1ccc(O)cc1)[C@@H](C)O)[C@@H](C)CC)C(=O)N[C@@H](C)C(=O)N[C@@H](CC(C)C)C(=O)N[C@@H](CC(=O)O)C(=O)N[C@@H](CCCCN)C(=O)N[C@@H](CCCCNC(=O)COCCOCCNC(=O)COCCOCCNC(=O)CC[C@H](NC(=O)CCCCCCCCCCCCCCCCC(=O)O)C(=O)O)C(=O)N[C@@H](Cc1c[nH]cn1)C(=O)N[C@@H](CCC(N)=O)C(=O)NC(C)(C)C(=O)N[C@@H](CC(=O)O)C(=O)N[C@@H](Cc1ccccc1)C(=O)N[C@H](C(=O)N[C@@H](CCC(=O)O)C(=O)N[C@@H](Cc1ccncc1)C(=O)N[C@@H](CC(C)C)C(=O)N[C@@H](CC(C)C)C(=O)N[C@@H](C)C(=O)NCC(=O)NCC(=O)N1CCC[C@H]1C(=O)N[C@@H](CO)C(=O)N[C@@H](CO)C(=O)NCC(=O)N[C@@H](C)C(=O)N1CCC[C@H]1C(=O)N1CCC[C@H]1C(=O)N1CCC[C@H]1C(=O)N[C@@H](CO)C(N)=O)C(C)C` [Example 21] (H-Y[Aib]EGTFISDYSIALDKK([AEEA-AEEA-γGlu-C18 diacid])HQ[Aib]DFVE[4Pal]LLAGGPSSGAPPPS-NH2): the EC50 is greater than 5000 nM in assay [1], 0.291 nM in assay [2] and greater than 5000 nM in assay [3].

On to `CC[C@H](C)[C@H](NC(=O)[C@H](CO)NC(=O)[C@H](Cc1ccc(O)cc1)NC(=O)[C@H](CC(=O)O)NC(=O)[C@H](CO)NC(=O)[C@@H](NC(=O)[C@H](Cc1ccccc1)NC(=O)[C@@H](NC(=O)CNC(=O)[C@H](CCC(=O)O)NC(=O)C(C)(C)NC(=O)[C@@H](N)Cc1ccc(O)cc1)[C@@H](C)O)[C@@H](C)CC)C(=O)N[C@@H](CC(C)C)C(=O)N[C@@H](CC(C)C)C(=O)N[C@@H](CC(=O)O)C(=O)N[C@@H](CCCCN)C(=O)N[C@@H](CCCCNC(=O)COCCOCCNC(=O)COCCOCCNC(=O)CC[C@H](NC(=O)CCCCCCCCCCCCCCCCC(=O)O)C(=O)O)C(=O)N[C@@H](Cc1c[nH]cn1)C(=O)N[C@@H](CCC(N)=O)C(=O)NC(C)(C)C(=O)N[C@@H](CC(=O)O)C(=O)N[C@@H](Cc1ccccc1)C(=O)N[C@H](C(=O)N[C@@H](CCC(=O)O)C(=O)N[C@@H](Cc1ccncc1)C(=O)N[C@@H](CC(C)C)C(=O)N[C@@H](CC(C)C)C(=O)N[C@@H](C)C(=O)NCC(=O)NCC(=O)N1CCC[C@H]1C(=O)N[C@@H](CO)C(=O)N[C@@H](CO)C(=O)NCC(=O)N[C@@H](C)C(=O)N1CCC[C@H]1C(=O)N1CCC[C@H]1C(=O)N1CCC[C@H]1C(=O)N[C@@H](CO)C(N)=O)C(C)C` [Example 22], for which the EC50 in assay [1] was 1250 nM; in assay [2], 0.0345 nM; in assay [3], greater than 5000 nM.

On to `CC[C@H](C)[C@H](NC(=O)[C@H](CO)NC(=O)[C@H](Cc1ccc(O)cc1)NC(=O)[C@H](CC(=O)O)NC(=O)[C@H](CO)NC(=O)[C@@H](NC(=O)[C@](C)(Cc1ccccc1)NC(=O)[C@@H](NC(=O)CNC(=O)[C@H](CCC(=O)O)NC(=O)C(C)(C)NC(=O)[C@@H](N)Cc1ccc(O)cc1)[C@@H](C)O)[C@@H](C)CC)C(=O)N[C@@H](C)C(=O)N[C@@H](CC(C)C)C(=O)N[C@@H](CC(=O)O)C(=O)N[C@@H](CCCCN)C(=O)N[C@@H](CCCCNC(=O)COCCOCCNC(=O)COCCOCCNC(=O)CC[C@H](NC(=O)CCCCCCCCCCCCCCCCC(=O)O)C(=O)O)C(=O)N[C@@H](Cc1c[nH]cn1)C(=O)N[C@@H](CCC(N)=O)C(=O)NC(C)(C)C(=O)N[C@@H](CC(=O)O)C(=O)N[C@@H](Cc1ccccc1)C(=O)N[C@H](C(=O)N[C@@H](CCC(=O)O)C(=O)N[C@@H](Cc1ccncc1)C(=O)N[C@@H](CC(C)C)C(=O)N[C@@H](CC(C)C)C(=O)N[C@@H](C)C(=O)NCC(=O)NCC(=O)N1CCC[C@H]1C(=O)N[C@@H](CO)C(=O)N[C@@H](CO)C(=O)NCC(=O)N[C@@H](C)C(=O)N1CCC[C@H]1C(=O)N1CCC[C@H]1C(=O)N1CCC[C@H]1C(=O)N[C@@H](CO)C(N)=O)C(C)C` [Example 23] (H-Y[Aib]EGT[αMeF]ISDYSIALDKK([AEEA-AEEA-γGlu-C18 diacid])HQ[Aib]DFVE[4Pal]LLAGGPSSGAPPPS-NH2), for which the results for the concentration giving a half-maximal response (EC50) in assay [1], in assay [2] and in assay [3] were greater than 5000 nM, 0.0192 nM and 206 nM, respectively.

As to `CC[C@H](C)[C@H](NC(=O)[C@H](Cc1ccccc1)NC(=O)[C@@H](NC(=O)CNC(=O)[C@H](CCC(=O)O)NC(=O)C(C)(C)NC(=O)[C@@H](N)Cc1ccc(O)cc1)[C@@H](C)O)C(=O)N[C@@H](CO)C(=O)N[C@@H](CC(=O)O)C(=O)N[C@@H](Cc1ccc(O)cc1)C(=O)N[C@@H](CO)C(=O)N[C@H](C(=O)NC(C)(C)C(=O)N[C@@H](CC(C)C)C(=O)N[C@@H](CC(=O)O)C(=O)N[C@@H](CCCCN)C(=O)N[C@@H](CCCCNC(=O)COCCOCCNC(=O)COCCOCCNC(=O)CC[C@H](NC(=O)CCCCCCCCCCCCCCCCC(=O)O)C(=O)O)C(=O)N[C@@H](Cc1c[nH]cn1)C(=O)N[C@@H](CCC(N)=O)C(=O)NC(C)(C)C(=O)N[C@@H](CC(=O)O)C(=O)N[C@@H](Cc1ccccc1)C(=O)N[C@H](C(=O)N[C@@H](CCC(=O)O)C(=O)N[C@@H](Cc1ccncc1)C(=O)N[C@@H](CC(C)C)C(=O)N[C@@H](CC(C)C)C(=O)N[C@@H](C)C(=O)NCC(=O)NCC(=O)N1CCC[C@H]1C(=O)N[C@@H](CO)C(=O)N[C@@H](CO)C(=O)NCC(=O)N[C@@H](C)C(=O)N1CCC[C@H]1C(=O)N1CCC[C@H]1C(=O)N1CCC[C@H]1C(=O)N[C@@H](CO)C(N)=O)C(C)C)[C@@H](C)CC` [Example 24], the EC50 in assay [1] was greater than 5000 nM; in assay [2], 0.0699 nM; in assay [3], greater than 5000 nM.

For the molecule `CC[C@H](C)[C@H](NC(=O)[C@H](CO)NC(=O)[C@H](Cc1ccc(O)cc1)NC(=O)[C@H](CC(=O)O)NC(=O)[C@H](CO)NC(=O)[C@@H](NC(=O)[C@](C)(Cc1ccccc1)NC(=O)[C@@H](NC(=O)CNC(=O)[C@H](CCC(=O)O)NC(=O)C(C)(C)NC(=O)[C@@H](N)Cc1ccc(O)cc1)[C@@H](C)O)[C@@H](C)CC)C(=O)N[C@@H](C)C(=O)N[C@@H](CC(C)C)C(=O)N[C@@H](CC(=O)O)C(=O)N[C@@H](CCCCN)C(=O)N[C@@H](CCCCNC(=O)COCCOCCNC(=O)COCCOCCNC(=O)CC[C@H](NC(=O)CCCCCCCCCCCCCCCCCCC(=O)O)C(=O)O)C(=O)N[C@@H](Cc1c[nH]cn1)C(=O)N[C@@H](CCC(N)=O)C(=O)NC(C)(C)C(=O)N[C@@H](CCC(=O)O)C(=O)N[C@@H](Cc1ccccc1)C(=O)N[C@H](C(=O)N[C@@H](CC(N)=O)C(=O)N[C@@H](Cc1c[nH]c2ccccc12)C(=O)N[C@@H](CC(C)C)C(=O)N[C@@H](CC(C)C)C(=O)N[C@@H](C)C(=O)NCC(=O)NCC(=O)N1CCC[C@H]1C(=O)N[C@@H](CO)C(=O)N[C@@H](CO)C(=O)NCC(=O)N[C@@H](C)C(=O)N1CCC[C@H]1C(=O)N1CCC[C@H]1C(=O)N1CCC[C@H]1C(=O)N[C@@H](CO)C(N)=O)C(C)C` [Example 25] (H-Y[Aib]EGT[αMeF]ISDYSIALDKK([AEEA-AEEA-γGlu-C20 diacid])HQ[Aib]EFVNWLLAGGPSSGAPPPS-NH2), the EC50 in assay [1] was greater than 5000 nM; in assay [2], 0.0155 nM; in assay [3], 8.39 nM.

For orientation: EC50 means the concentration needed to bring the measured effect to its halfway point.
